The subject of assay [1] is Epidermal growth factor receptor (Homo sapiens), P00533 [UNDEFINED MUTATION]. The experiment in a line: Inhibition of EGFR L747-E749del/A750P mutant (unknown origin) assessed as residual activity at 1000 nM by KINOMEscan analysis relative to control.
The target of assay [2] is T1, 3-phosphoinositide-dependent protein kinase 1 (Homo sapiens) (UniProt O15530).
T1 sequence (whole entry): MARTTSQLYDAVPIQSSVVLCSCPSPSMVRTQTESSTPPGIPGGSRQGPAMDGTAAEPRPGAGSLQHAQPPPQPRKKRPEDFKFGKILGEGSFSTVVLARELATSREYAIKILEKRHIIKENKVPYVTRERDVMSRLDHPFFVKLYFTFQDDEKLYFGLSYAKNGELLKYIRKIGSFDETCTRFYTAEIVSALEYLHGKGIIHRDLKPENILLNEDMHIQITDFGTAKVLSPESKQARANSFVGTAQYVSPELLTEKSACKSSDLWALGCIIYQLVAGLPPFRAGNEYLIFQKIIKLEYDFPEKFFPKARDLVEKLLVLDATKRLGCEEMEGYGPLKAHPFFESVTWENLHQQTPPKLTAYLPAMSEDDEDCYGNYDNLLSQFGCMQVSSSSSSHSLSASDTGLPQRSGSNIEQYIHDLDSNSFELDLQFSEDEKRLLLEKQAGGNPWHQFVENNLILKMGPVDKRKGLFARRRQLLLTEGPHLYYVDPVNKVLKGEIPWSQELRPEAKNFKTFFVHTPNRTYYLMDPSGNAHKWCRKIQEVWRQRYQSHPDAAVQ
The experiment in a line: Inhibition of PDPK1 (unknown origin) assessed as residual activity at 1000 nM by KINOMEscan analysis relative to control.

The target in assay [3] is Tyrosine-protein kinase Fer (Homo sapiens) (UniProt P16591). The experiment in a line: Inhibition of FER (unknown origin) assessed as residual activity at 1000 nM by KINOMEscan analysis relative to control.
Chain of Tyrosine-protein kinase Fer (Homo sapiens) (P16591 whole entry, looked up): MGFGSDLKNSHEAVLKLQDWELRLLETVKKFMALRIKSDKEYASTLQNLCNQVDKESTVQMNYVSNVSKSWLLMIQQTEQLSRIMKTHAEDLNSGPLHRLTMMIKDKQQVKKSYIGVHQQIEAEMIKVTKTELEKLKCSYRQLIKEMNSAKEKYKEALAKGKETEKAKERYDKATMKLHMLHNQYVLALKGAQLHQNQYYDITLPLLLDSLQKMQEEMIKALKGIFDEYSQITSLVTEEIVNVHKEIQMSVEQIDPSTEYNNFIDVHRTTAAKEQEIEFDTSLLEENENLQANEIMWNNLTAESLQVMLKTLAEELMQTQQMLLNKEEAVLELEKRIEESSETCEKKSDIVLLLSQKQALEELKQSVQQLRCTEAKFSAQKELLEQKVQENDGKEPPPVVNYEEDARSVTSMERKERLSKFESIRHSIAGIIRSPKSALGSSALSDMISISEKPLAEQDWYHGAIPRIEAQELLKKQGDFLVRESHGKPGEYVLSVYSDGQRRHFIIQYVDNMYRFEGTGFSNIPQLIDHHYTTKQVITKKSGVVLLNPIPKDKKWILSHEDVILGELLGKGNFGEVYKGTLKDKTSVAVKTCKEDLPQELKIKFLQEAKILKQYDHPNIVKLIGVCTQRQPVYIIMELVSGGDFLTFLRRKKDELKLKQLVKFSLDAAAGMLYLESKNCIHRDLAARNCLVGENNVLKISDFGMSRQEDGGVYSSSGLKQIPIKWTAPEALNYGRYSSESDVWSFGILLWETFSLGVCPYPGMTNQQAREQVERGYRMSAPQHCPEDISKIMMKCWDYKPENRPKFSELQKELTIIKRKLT
Assay [4] deals with Mast/stem cell growth factor receptor Kit (Homo sapiens), P10721 [D816H]. The experiment in a line: Inhibition of KIT D816H mutant (unknown origin) assessed as residual activity at 1000 nM by KINOMEscan analysis relative to control.
Chain of Mast/stem cell growth factor receptor Kit (Homo sapiens), P10721 [D816H] (P10721 whole entry D816H): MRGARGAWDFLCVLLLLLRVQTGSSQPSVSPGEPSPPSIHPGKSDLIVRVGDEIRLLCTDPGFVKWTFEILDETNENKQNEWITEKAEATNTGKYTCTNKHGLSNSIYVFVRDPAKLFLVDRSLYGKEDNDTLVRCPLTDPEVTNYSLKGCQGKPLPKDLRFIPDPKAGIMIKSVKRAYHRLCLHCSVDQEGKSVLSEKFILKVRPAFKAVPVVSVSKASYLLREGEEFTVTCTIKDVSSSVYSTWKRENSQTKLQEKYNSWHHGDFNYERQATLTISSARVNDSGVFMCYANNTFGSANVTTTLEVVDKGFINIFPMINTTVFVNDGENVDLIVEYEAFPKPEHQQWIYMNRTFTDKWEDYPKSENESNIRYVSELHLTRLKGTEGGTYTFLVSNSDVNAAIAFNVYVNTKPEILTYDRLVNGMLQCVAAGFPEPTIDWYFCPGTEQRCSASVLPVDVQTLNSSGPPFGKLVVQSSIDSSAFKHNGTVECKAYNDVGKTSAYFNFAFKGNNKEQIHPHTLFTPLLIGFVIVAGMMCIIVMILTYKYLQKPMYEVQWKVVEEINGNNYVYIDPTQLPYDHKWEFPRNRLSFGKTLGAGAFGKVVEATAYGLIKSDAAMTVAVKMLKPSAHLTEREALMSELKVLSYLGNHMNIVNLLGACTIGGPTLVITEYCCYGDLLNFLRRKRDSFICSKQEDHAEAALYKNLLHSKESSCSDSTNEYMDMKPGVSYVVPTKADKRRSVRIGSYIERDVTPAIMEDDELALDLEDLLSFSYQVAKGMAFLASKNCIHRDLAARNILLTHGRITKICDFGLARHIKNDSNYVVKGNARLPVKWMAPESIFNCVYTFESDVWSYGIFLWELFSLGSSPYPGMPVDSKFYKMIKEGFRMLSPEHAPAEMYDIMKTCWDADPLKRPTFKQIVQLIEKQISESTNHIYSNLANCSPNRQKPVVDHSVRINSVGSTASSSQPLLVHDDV
Assay [5] addresses Serine/threonine-protein kinase 25 (Homo sapiens) (UniProt O00506). The experiment in a line: Inhibition of YSK1 (unknown origin) assessed as residual activity at 1000 nM by KINOMEscan analysis relative to control.
The target in assay [6] is T2, Dual specificity mitogen-activated protein kinase kinase 6 (Homo sapiens) (UniProt P52564).
T2 sequence (whole entry): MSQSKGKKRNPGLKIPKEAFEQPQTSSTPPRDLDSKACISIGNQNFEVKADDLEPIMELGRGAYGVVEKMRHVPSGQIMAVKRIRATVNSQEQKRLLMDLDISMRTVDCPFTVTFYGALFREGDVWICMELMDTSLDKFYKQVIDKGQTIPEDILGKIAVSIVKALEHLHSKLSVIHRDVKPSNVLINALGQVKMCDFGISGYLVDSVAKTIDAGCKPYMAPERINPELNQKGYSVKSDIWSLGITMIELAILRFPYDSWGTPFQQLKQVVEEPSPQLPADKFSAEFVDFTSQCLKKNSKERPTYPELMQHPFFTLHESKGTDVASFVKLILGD
The experiment in a line: Inhibition of MEK6 (unknown origin) assessed as residual activity at 1000 nM by KINOMEscan analysis relative to control.

Assay [7] concerns the target STE20-like serine/threonine-protein kinase (Homo sapiens) (UniProt Q9H2G2). The experiment in a line: Inhibition of SLK (unknown origin) assessed as residual activity at 1000 nM by KINOMEscan analysis relative to control.
Assay [8] concerns the target Serine/threonine-protein kinase MAK (Homo sapiens) (UniProt P20794). The experiment in a line: Inhibition of MAK (unknown origin) assessed as residual activity at 1000 nM by KINOMEscan analysis relative to control.
In assay [9] the target is T3, Dual specificity mitogen-activated protein kinase kinase 5 (Homo sapiens) (UniProt Q13163).
T3 sequence (whole entry): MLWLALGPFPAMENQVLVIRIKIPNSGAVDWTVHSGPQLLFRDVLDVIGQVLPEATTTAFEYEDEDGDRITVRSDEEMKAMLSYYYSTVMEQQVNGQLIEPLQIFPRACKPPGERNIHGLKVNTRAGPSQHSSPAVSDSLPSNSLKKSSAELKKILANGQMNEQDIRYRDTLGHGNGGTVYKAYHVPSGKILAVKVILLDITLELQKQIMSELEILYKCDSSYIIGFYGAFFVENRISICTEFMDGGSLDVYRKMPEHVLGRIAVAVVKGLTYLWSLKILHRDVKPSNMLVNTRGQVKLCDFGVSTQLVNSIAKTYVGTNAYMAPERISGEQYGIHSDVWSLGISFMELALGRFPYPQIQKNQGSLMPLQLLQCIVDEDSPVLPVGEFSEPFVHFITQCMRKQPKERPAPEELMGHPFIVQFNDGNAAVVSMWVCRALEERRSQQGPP
The experiment in a line: Inhibition of MEK5 (unknown origin) assessed as residual activity at 1000 nM by KINOMEscan analysis relative to control.

Assay [10] has as its target T4, Serine/threonine-protein kinase ULK3 (Homo sapiens) (UniProt Q6PHR2).
T4 sequence (whole entry): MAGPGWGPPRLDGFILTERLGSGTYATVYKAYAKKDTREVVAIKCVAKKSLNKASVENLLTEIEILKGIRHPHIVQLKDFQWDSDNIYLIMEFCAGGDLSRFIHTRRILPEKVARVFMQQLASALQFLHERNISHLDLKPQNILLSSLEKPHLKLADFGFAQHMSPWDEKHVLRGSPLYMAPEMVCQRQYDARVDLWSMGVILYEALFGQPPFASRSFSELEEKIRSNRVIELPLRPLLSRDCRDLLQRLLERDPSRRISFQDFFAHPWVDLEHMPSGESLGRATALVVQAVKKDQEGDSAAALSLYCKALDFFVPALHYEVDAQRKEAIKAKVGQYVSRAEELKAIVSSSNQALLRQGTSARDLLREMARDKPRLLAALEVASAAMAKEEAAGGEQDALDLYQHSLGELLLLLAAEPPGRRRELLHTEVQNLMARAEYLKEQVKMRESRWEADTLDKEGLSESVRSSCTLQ
The experiment in a line: Inhibition of ULK3 (unknown origin) assessed as residual activity at 1000 nM by KINOMEscan analysis relative to control.

The target in assay [11] is Interleukin-1 receptor-associated kinase 1 (Homo sapiens) (UniProt P51617). The experiment in a line: Inhibition of IRAK1 (unknown origin) assessed as residual activity at 1000 nM by KINOMEscan analysis relative to control.
Chain of Interleukin-1 receptor-associated kinase 1 (Homo sapiens) (P51617 whole entry, looked up): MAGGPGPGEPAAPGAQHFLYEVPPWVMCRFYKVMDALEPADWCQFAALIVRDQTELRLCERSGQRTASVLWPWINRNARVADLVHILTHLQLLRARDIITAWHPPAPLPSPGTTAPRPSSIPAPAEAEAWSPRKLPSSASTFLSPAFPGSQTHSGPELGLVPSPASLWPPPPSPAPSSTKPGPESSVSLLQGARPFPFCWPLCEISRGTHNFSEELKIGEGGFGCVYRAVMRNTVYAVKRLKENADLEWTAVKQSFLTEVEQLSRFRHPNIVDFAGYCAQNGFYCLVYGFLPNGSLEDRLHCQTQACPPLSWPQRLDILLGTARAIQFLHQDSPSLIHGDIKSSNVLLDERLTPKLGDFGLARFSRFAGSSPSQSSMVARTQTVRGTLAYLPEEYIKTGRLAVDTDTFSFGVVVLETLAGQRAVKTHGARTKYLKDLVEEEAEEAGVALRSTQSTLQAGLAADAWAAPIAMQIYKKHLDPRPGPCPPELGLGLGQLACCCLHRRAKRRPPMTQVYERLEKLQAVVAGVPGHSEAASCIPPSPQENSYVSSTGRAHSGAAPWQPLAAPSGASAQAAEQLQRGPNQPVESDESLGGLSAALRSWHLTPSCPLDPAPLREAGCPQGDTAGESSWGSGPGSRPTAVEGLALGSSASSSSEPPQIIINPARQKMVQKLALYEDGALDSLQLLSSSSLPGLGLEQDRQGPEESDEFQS

The values below come from ChEMBL document CHEMBL5678818, “Discovery of potent SOS1 inhibitors that block RAS activation via disruption of the RAS-SOS1 interaction” (Proc Natl Acad Sci U S A, 2019).

Chain of Epidermal growth factor receptor (Homo sapiens), P00533 [UNDEFINED MUTATION] (P00533 whole entry, looked up, stated change not applied): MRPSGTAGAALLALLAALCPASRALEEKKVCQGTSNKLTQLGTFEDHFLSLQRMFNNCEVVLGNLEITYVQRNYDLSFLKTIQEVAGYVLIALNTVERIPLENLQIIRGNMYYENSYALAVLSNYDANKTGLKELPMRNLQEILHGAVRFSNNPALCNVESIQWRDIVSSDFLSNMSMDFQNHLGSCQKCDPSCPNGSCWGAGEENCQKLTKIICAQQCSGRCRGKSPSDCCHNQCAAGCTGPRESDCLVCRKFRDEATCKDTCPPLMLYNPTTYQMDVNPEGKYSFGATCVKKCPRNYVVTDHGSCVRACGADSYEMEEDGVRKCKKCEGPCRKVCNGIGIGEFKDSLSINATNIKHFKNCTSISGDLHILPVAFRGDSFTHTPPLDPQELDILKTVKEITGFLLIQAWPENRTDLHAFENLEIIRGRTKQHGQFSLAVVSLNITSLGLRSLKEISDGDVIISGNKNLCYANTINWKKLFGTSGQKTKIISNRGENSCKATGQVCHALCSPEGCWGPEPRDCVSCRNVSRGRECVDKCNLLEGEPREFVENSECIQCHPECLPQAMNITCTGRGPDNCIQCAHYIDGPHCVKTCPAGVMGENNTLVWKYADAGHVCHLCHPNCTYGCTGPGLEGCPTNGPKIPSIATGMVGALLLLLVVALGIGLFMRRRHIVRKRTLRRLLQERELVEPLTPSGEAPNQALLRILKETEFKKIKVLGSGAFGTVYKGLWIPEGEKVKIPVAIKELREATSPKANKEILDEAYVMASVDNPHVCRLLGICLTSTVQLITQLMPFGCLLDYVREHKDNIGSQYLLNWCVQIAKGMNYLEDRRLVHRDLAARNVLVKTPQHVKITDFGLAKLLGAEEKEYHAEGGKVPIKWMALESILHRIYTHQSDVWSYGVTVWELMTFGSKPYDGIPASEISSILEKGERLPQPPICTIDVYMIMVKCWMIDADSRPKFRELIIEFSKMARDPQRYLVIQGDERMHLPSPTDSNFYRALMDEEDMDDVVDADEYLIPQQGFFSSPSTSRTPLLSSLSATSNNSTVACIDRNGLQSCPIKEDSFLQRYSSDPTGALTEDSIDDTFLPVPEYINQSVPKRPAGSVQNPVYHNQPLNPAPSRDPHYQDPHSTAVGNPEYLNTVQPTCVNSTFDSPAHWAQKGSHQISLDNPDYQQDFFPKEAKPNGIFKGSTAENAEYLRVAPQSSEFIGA
Chain of Serine/threonine-protein kinase MAK (Homo sapiens) (P20794 whole entry, looked up): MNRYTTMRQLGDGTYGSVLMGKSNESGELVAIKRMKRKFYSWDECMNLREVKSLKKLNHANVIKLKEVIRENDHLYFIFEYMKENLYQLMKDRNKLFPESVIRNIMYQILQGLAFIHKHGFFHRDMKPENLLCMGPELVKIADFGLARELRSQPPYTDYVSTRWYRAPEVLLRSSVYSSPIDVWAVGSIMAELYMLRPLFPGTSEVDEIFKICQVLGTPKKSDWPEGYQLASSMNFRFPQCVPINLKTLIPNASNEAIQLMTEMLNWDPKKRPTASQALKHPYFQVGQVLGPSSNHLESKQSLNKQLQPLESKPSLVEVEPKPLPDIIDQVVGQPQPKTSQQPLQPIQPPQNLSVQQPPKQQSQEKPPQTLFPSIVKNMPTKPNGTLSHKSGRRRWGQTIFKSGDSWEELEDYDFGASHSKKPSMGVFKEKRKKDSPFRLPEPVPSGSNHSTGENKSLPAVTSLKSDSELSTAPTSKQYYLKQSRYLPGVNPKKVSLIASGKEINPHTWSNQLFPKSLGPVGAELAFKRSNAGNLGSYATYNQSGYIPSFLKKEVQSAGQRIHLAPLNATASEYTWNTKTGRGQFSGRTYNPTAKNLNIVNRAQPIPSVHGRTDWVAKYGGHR
Chain of Serine/threonine-protein kinase 25 (Homo sapiens) (O00506 whole entry, looked up): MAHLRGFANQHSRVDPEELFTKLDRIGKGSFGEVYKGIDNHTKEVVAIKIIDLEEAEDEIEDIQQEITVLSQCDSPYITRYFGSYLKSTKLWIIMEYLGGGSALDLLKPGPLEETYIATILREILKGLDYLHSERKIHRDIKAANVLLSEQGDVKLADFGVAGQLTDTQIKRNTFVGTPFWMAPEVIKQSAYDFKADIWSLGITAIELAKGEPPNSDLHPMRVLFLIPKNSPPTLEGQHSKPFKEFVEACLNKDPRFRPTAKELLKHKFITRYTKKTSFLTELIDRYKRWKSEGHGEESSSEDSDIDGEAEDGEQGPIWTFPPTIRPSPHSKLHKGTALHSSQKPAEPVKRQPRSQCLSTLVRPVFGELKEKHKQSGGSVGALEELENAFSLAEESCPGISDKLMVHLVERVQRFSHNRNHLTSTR

Take `COc1cc2ncnc(N[C@H](C)c3cccc4ccccc34)c2cc1OC`: the Activity turned out to be 3.2% in assay [1]; 88% in assay [2]; 97% in assay [3]; 97% in assay [4]; 100% in assay [5]; 100% in assay [6]. Further, the Activity worked out at 84% in [7]; 100% in [8]; 89% in assay [9]; 99% in assay [10]; 85% in [11].

As for `COc1cc2nc(C)nc(N[C@H](C)c3cccc(-c4cn[nH]c4)c3)c2cc1OC`, the Activity was 99% in [1]; 97% in assay [2]; 99% in assay [3]; 88% in assay [4]; 99% in assay [5]; 91% in assay [6]. Further, the Activity came to 61% in assay [7]; 80% in [8]; 61% in assay [9]; 82% in assay [10]; 68% in [11].
